Read-outs that look alike come from different tables or passages of the source.
Columns and labels:
clinical [1] = conditions: female, human, in vivo, ip
[2] = test system: human tumor colony forming units; design: method as in Burris et al, 1992; conditions: in vitro; ref Burris et al, 1992; cited from earlier work
[3] = cited from earlier work
recurrent ovarian cancer = experiment: Tumour responses to IP topotecan; assay type: in vivo, human
[4] = Phase I toxicity of IP topotecan (WHO grading)
[5] = female, human, in vivo
DNA topoisomerase I = test system: DNA topoisomerase I; design: method as in Kingsbury et al, 1991; conditions: in vitro; ref Kingsbury et al, 1991; cited from earlier work
[6] = human, in vivo, ip; for MRT / T1/2: female
[7] = cited from earlier work; remark: listed apart in the source
[8] = in vitro, 1994, cited from earlier work
clinical [9] = conditions: female, human, in vivo, ip, 20 mg/m2, Cmax
[10] = design: method as in Rowinsky et al, 1992; Verweij et al, 1993; Herben et al, 1996; conditions: ref Rowinsky et al, 1992, Verweij et al, 1993, Herben et al, 1996, cited from earlier work
[11] = in vivo
ovarian cancer = test system: ovarian cancer; design: method as in earlier work; conditions: patients who failed platinum based chemotherapy; ref Neijt et al, 1991; Kudelka et al, 1996; Ten Bokkel Huinink et al, 1997; cited from earlier work

In the case of `CC[C@@]1(O)C(=O)OCc2c1cc1n(c2=O)Cc2cc3c(CN(C)C)c(O)ccc3nc2-1` [topotecan, Topotecan], the AUC (clinical [1]; 5 mg/m2, AUC) is reported as 81 ng·h/mL, the MRT (clinical [1]; 5 mg/m2, MRT) is reported as 7 h and the half-life (clinical [1]; 5 mg/m2, T1/2) is reported as 4.6 h. For the same molecule, the AUC (clinical [1]; 10 mg/m2, AUC) was 107 ng·h/mL, the Cmax (clinical [1]; 10 mg/m2, Cmax) was 14 ng/mL and the MRT (clinical [1]; 10 mg/m2, MRT) was 6.5 h. For the same molecule, the half-life (clinical [1]; 10 mg/m2, T1/2) was 3.9 h, the Tmax (clinical [1]; 10 mg/m2, Tmax) was 1.7 h and the Tmax (clinical [1]; 15 mg/m2, Tmax) was 1.6 h. It also gave an MRT (clinical [1]; 20 mg/m2, MRT) of 8.1 h, a half-life (clinical [1]; 20 mg/m2, T1/2) of 4.4 h and a Tmax (clinical [1]; 20 mg/m2, Tmax) of 3 h. The Cmax (clinical [1]; 30 mg/m2, Cmax) was 145 ng/mL, the Tmax (clinical [1]; 30 mg/m2, Tmax) was 1.8 h and the half-life (clinical [1]; T1/2) was 5.2 h. The half-life (clinical [1]; T1/2 of lactone in this study (discussion)) was 5.5 h, the Tmax (clinical [1]; Tmax (time to peak plasma level after start of IP administration)) was 2.1 h and the Threshold concentration for cytotoxic activity, continuous exposure [2] was 100 µg/L. For the same molecule, the Recommended dosage ([3]; continuous 24-h IP infusion, ref Plaxe et al, 1998) was 3 mg/m2, the “Dose limiting toxicity in most studies” value ([3]; ref Abbruzzese et al, 1993, Kantarjian et al, Rowinsky et al, 1994, Van Warmerdam et al, 1995, Hochster et al) was “neutropenia” and the “Partial responses (> 50% decrease in repeated CA125 levels)” value (recurrent ovarian cancer; biochemically evaluable patients) was 6 of 13. For the same molecule, the “Stable disease for 6-8 cycles” value (recurrent ovarian cancer; clinically evaluable patients) was 5 of 8, the Complete clinical responses (recurrent ovarian cancer; pretreated patients, IP 5-30 mg/m2) was “no complete clinical responses” and the “Patients with progressive disease” value (recurrent ovarian cancer; three by marker and three by clinical parameters) was “six”. For the same molecule, the “Maximum tolerated dose (MTD)” value [4] was 20 mg/m2, the “Tmax (time to peak plasma level after start of IP administration)” value [5] was 2.7 ± 1.1 h and the “Dose level from which plasma concentrations required for cytotoxicity in vitro were reached” value ([5]; ip) was at least 15 mg/m2. For the same molecule, the T1/2 ([5]; ip) was 3.7 ± 1.3 h, the MRT ([5]; ip, 20 mg/m2) was 6.9 h and the “Inhibition of DNA topoisomerase I” value (DNA topoisomerase I) was “potent inhibitor”. For the same molecule, the MRT ([6]; 10 mg/m2) was 2.6 h, the T1/2 ([6]; 10 mg/m2) was 1.8 h and the MRT ([6]; 30 mg/m2) was 3.4 h. The T1/2 ([6]; 30 mg/m2) was 2.3 h, the CL [6] was 0.8 L/h/m2 and the Vss for lactone ([7]; IV administration, ref Herben et al) was 94 L/m2. The “Terminal T1/2 for peritoneal topotecan” value ([7]; continuous IP infusion, ref Plaxe et al, 1998) was 2.7 h, the Cytotoxic concentrations ([8]; ref Pizao et al) was 13.7 to 229 µg/L and the Cytotoxic concentration ([8]; ref Tanizawa et al) was 128 µg/L. The Cmax (clinical [9]) was 12100 ng/mL, the Form at equilibrium ([10]; pH 7.4) was “open-ring form predominates” and the “Stability in infusion fluids” value ([10]; pH < 4.0) was “stable”. The Stability in plasma ([10]; plasma) was “unstable”, the “Patients with nausea and/or vomiting grade I-II” value ([11]; female, human) was 12 patients and the “Platelets toxicity Grade III, worst haematologic toxicity (number)” value ([11]; female, human, 74 cycles) was 2. The “Platelets toxicity Grade IV, worst haematologic toxicity (number)” value ([11]; female, human, 74 cycles) was 0, the “WBC toxicity Grade III, worst haematologic toxicity (number)” value ([11]; female, human, 74 cycles) was 5 and the “WBC toxicity Grade IV, worst haematologic toxicity (number)” value ([11]; female, human, 74 cycles) was 1. The Duration of myelosuppression ([11]; female, human, ip) was under 7 days, the “Recommended dose for further phase II trials” value ([11]; female, human, ip) was 20 mg/m2 and the Bleeding episodes [11] was “No bleeding episodes”. The “Patients with abdominal pain grade I” value [11] was “six”, the “Patients with nausea and vomiting grade III” value [11] was “three” and the “Dose limiting toxicity (DLT)” value ([11]; ip) was “acute hypotension, chills and fever”. The “Patients with generalized transient skin rash” value ([11]; ip) was “four” and the Duration of response (ovarian cancer) was 22-32 weeks.
